The record followed here is US10722520B2, “Heterocyclic compounds and their use in preventing or treating bacterial infections” (MUTABILIS, priority 2016, dated 2020).

For assay [1], the system named is E. cloacae P99. Put plainly: MIC of compound alone, broth microdilution. Conditions: strain P99; compound alone. It counts as cell-based. In short, it runs like this:
(§1)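 Exponential-phase inoculum, 5×10^5 cfu/mL final, in cation-supplemented MHB; 35° C in air for 16-20 h. MIC: lowest concentration giving no visible growth.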
On the technique in general: Broth dilution looks for growth in wells or tubes with falling amounts of substance.

For assay [2], the system named is E. coli 190317. Nature of the assay: MIC of compound alone, broth microdilution. It counts as cell-based. Conditions: strain 190317; compound alone. In short, it runs like this: as §1
The test system of assay [3] is P. aeruginosa CIP107051. Nature of the assay: MIC of compound alone, broth microdilution. Conditions: strain CIP107051; compound alone. It counts as cell-based. In short, it runs like this: as §1
The subject of assay [4] is K. pneumoniae BAA-1898. Put plainly: MIC of compound alone, broth microdilution. It counts as cell-based. Conditions: strain BAA-1898; compound alone. In short, it runs like this:
as §1

Assay [5] deals with K. pneumoniae 6299. Put plainly: MIC of compound alone, broth microdilution. It counts as cell-based. Conditions: strain 6299; compound alone. An outline of the steps: as §1
The target of another assay is CTX-M-15 (Escherichia coli, UniProt Q9EXV5). Conditions: read-out: IC50 β-lactamase CTX-M-15; class (A); nitrocefin 200 μM, 30-min pre-incubation, enzyme 0.4 nM.
Another assay addresses KPC-2 (Klebsiella pneumoniae, UniProt Q9F663). Conditions: read-out: IC50 β-lactamase KPC-2; class (A); nitrocefin 200 μM, 30-min pre-incubation, enzyme 1 nM.
The target of the next assay is OXA-1 (Escherichia coli, UniProt P13661). Conditions: read-out: IC50 β-lactamase OXA-1; class (D); nitrocefin 200 μM, 30-min pre-incubation, enzyme 0.2 nM.
The next assay has as its target AmpC (PAE) (Pseudomonas aeruginosa, UniProt P24735). Conditions: read-out: IC50 β-lactamase AmpC (PAE); class (C); nitrocefin 200 μM, 30-min pre-incubation, enzyme 0.4 nM.
The target of another assay is OXA-15 (Pseudomonas aeruginosa, UniProt Q51574). Conditions: read-out: IC50 β-lactamase OXA-15; class (D); nitrocefin 200 μM, 30-min pre-incubation, enzyme 0.4 nM.
A further assay has as its target OXA-48 (Klebsiella pneumoniae, UniProt Q6XEC0). Conditions: read-out: IC50 β-lactamase OXA-48; class (D); nitrocefin 200 μM, 30-min pre-incubation, enzyme 0.3 nM.
For the next assay, the target named is OXA-11 (Pseudomonas aeruginosa, UniProt Q06778). Conditions: read-out: IC50 β-lactamase OXA-11; class (D); nitrocefin 200 μM, 30-min pre-incubation, enzyme 1.2 nM.
Another assay deals with SHV-1 (Klebsiella pneumoniae, UniProt P0AD64). Conditions: read-out: IC50 β-lactamase SHV-1; class (A); nitrocefin 200 μM, 30-min pre-incubation, enzyme 0.075 nM.
The next assay deals with TEM-1 (Escherichia coli, UniProt P62593). Conditions: read-out: IC50 β-lactamase TEM-1; class (A); nitrocefin 200 μM, 30-min pre-incubation, enzyme 0.1 nM.
Assay [6] relates to E. cloacae P99. Put plainly: MIC of ceftazidime (CAZ) at fixed concentration of compound (synergy), broth microdilution. It counts as cell-based. Conditions: strain P99; MIC of CAZ, compound fixed at 4 μg/mL. An outline of the steps:
as §1

Assay [7] concerns E. coli 190317. Described as above. It counts as cell-based. Conditions: strain 190317; MIC of CAZ, compound fixed at 4 μg/mL. An outline of the steps: as §1
Assay [8] has as its system P. aeruginosa CIP107051. The description is as above. Conditions: strain CIP107051; MIC of CAZ, compound fixed at 4 μg/mL. It counts as cell-based. In short, it runs like this:
as §1

In assay [9] the test system is K. pneumoniae BAA-1898. The assay is described as above. It counts as cell-based. Conditions: strain BAA-1898; MIC of CAZ, compound fixed at 4 μg/mL. In short, it runs like this:
as §1

The test system of assay [10] is K. pneumoniae 6299. The description is as above. It counts as cell-based. Conditions: strain 6299; MIC of CAZ, compound fixed at 4 μg/mL. In short, it runs like this:
as §1

A further assay concerns the target CMY-37 (Citrobacter freundii, UniProt P05193). Conditions: read-out: IC50 β-lactamase CMY-37; class (C); nitrocefin 200 μM, 30-min pre-incubation, enzyme 0.2 nM.
The target in another assay is AmpC (P99) (Enterobacter cloacae, UniProt P05364). Conditions: read-out: IC50 β-lactamase AmpC (P99); class (C); nitrocefin 200 μM, 30-min pre-incubation, enzyme 0.2 nM.

Usually IC50 stands for the concentration that inhibits the measured activity by half. `NC(=O)c1cn(C2=CC3CN(C2)C(=O)N3OS(=O)(=O)[O-])nn1.[Na+]` (stereo not drawn) [Example 56, sodium [3-(4-carbamoyltriazol-1-yl)-7-oxo-1,6-diazabicyclo[3.2.1]oct-3-en-6-yl]sulfate]: the “MIC compounds of the invention alone” value in the assay on E. cloacae P99 [1] is 8 µg/mL; in the assay on E. coli 190317 [2], 4 µg/mL; in the assay on P. aeruginosa CIP107051 [3] it was >32 µg/mL; in the assay on K. pneumoniae BAA-1898 [4], 32 µg/mL; in the assay with K. pneumoniae 6299 [5], 32 µg/mL. The IC50 on CTX-M-15 worked out at 0.44 nM; on KPC-2, 2.4 nM; on OXA-1, 30 nM; on AmpC (PAE), 290 nM; at OXA-15, 9 nM; on OXA-48, 0.48 nM. In addition, the IC50 on OXA-11 amounted to 37 nM; on SHV-1, 1 nM; on TEM-1, 0.17 nM; on CMY-37, 38 nM; on AmpC (P99), 12 nM. The “MIC combination of CAZ and compounds of the invention at 4 μg/mL” value (shortened to “MIC combination”) in the assay with E. cloacae P99 [6] was ≤0.25 µg/mL; in the assay with E. coli 190317 [7], <0.25 µg/mL; in the assay with P. aeruginosa CIP107051 [8], 8 µg/mL; in the assay on K. pneumoniae BAA-1898 [9], ≤0.25 µg/mL; in the assay on K. pneumoniae 6299 [10], ≤0.25 µg/mL.

In the case of `NCc1cn(C2=CC3CN(C2)C(=O)N3OS(=O)(=O)[O-])nn1.O=C(O)C(F)(F)F.[Na+]` (stereo not drawn) [Example 57, sodium and 2,2,2-trifluoroacetate [3-[4-(ammoniummethyl)triazol-1-yl]-7-oxo-1,6-diazabicyclo[3.2.1]oct-3-en-6-yl]sulfate], the “MIC compounds of the invention alone” value in the assay on E. cloacae P99 [1] is 1 µg/mL; in the assay with E. coli 190317 [2] it was 0.5 µg/mL; with P. aeruginosa CIP107051 [3], 16 µg/mL; in the assay with K. pneumoniae BAA-1898 [4], 16 µg/mL; with K. pneumoniae 6299 [5], >32 µg/mL. In addition, the IC50 is 0.75 nM at CTX-M-15; 11 nM on KPC-2; 66 nM at OXA-1; 550 nM at AmpC (PAE); 6.4 nM on OXA-15; 1.1 nM at OXA-48. Also, the IC50 on OXA-11 was determined as 170 nM; at SHV-1, 2.6 nM; at TEM-1, 0.37 nM; on CMY-37, 31 nM; at AmpC (P99) it was 21 nM. Moreover, the “MIC combination” value in the assay on E. cloacae P99 [6] was <0.25 µg/mL; in the assay with E. coli 190317 [7], <0.25 µg/mL; in the assay with P. aeruginosa CIP107051 [8], 4 µg/mL; with K. pneumoniae BAA-1898 [9], ≤0.25 µg/mL; in the assay on K. pneumoniae 6299 [10] it was ≤0.25 µg/mL.

Regarding `CN(C)Cc1cn(C2=CC3CN(C2)C(=O)N3OS(=O)(=O)[O-])nn1.[Na+]` (stereo not drawn) [Example 59, sodium [3-[4-(dimethylamino)methyltriazol-1-yl]-7-oxo-1,6-diazabicyclo[3.2.1]oct-3-en-6-yl]sulfate], the “MIC compounds of the invention alone” value in the assay with E. cloacae P99 [1] was 2 µg/mL; in the assay with E. coli 190317 [2], 1 µg/mL; in the assay with P. aeruginosa CIP107051 [3], >32 µg/mL; in the assay on K. pneumoniae BAA-1898 [4], >32 µg/mL; in the assay on K. pneumoniae 6299 [5], >32 µg/mL. Further, the IC50 at CTX-M-15 worked out at 0.55 nM; on KPC-2 it was 12 nM; on OXA-1, 210 nM; at AmpC (PAE), 590 nM; on OXA-15, 6.6 nM; on OXA-48, 1.2 nM. The IC50 on OXA-11 stood at 170 nM; at SHV-1, 2.5 nM; on TEM-1, 0.69 nM; at CMY-37, 72 nM; on AmpC (P99), 34 nM. For the same compound, the “MIC combination” value in the assay with E. cloacae P99 [6] was <0.25 µg/mL; in the assay on E. coli 190317 [7] it was <0.25 µg/mL; with P. aeruginosa CIP107051 [8], 8 µg/mL; in the assay on K. pneumoniae BAA-1898 [9] it was ≤0.25 µg/mL; in the assay on K. pneumoniae 6299 [10] it was ≤0.25 µg/mL.

In the case of `O=C([O-])Cc1cn(C2=CC3CN(C2)C(=O)N3OS(=O)(=O)[O-])nn1.[Na+].[Na+]` (stereo not drawn) [Example 61], the “MIC compounds of the invention alone” value with E. cloacae P99 [1] is 32 µg/mL; in the assay on E. coli 190317 [2] it was 32 µg/mL; with P. aeruginosa CIP107051 [3] it was >32 µg/mL; in the assay on K. pneumoniae BAA-1898 [4], >32 µg/mL; in the assay on K. pneumoniae 6299 [5], 32 µg/mL. The concentration for half-maximal inhibition (IC50) at CTX-M-15 turned out to be 1.8 nM; on KPC-2 it was 17 nM; at OXA-1, 110 nM; at AmpC (PAE), 1100 nM; on OXA-15, 19 nM; at OXA-48, 0.91 nM. Further, the IC50 at OXA-11 is 360 nM; at SHV-1 it was 6.1 nM; at TEM-1 it was 1.7 nM; at CMY-37, 41 nM; at AmpC (P99), 20 nM. The “MIC combination” value with E. cloacae P99 [6] was 8 µg/mL; with E. coli 190317 [7], 0.5 µg/mL; in the assay with P. aeruginosa CIP107051 [8], 4 µg/mL; in the assay with K. pneumoniae BAA-1898 [9], 64 µg/mL; with K. pneumoniae 6299 [10], 4 µg/mL.

As for `O=C([O-])CCc1cn(C2=CC3CN(C2)C(=O)N3OS(=O)(=O)[O-])nn1.[Na+].[Na+]` (stereo not drawn) [Example 65, disodium [3-[4-(propanoate)triazol-1-yl]-7-oxo-1,6-diazabicyclo[3.2.1]oct-3-en-6-yl]sulfate], the “MIC compounds of the invention alone” value was 32 µg/mL with E. cloacae P99 [1]; 32 µg/mL with E. coli 190317 [2]; >32 µg/mL in the assay on P. aeruginosa CIP107051 [3]; 32 µg/mL with K. pneumoniae BAA-1898 [4]; 32 µg/mL in the assay on K. pneumoniae 6299 [5]. For the same compound, the 50% inhibitory concentration (IC50) was 0.96 nM at CTX-M-15; 6 nM at KPC-2; 53 nM on OXA-1; 490 nM on AmpC (PAE); 6.7 nM at OXA-15; 0.8 nM on OXA-48. Moreover, the IC50 at OXA-11 is 270 nM; on SHV-1 it was 2.8 nM; on TEM-1, 0.27 nM; at CMY-37 it was 13 nM; on AmpC (P99), 11 nM. For the same compound, the “MIC combination” value with E. cloacae P99 [6] was 8 µg/mL; in the assay on E. coli 190317 [7], 0.5 µg/mL; in the assay with P. aeruginosa CIP107051 [8], 8 µg/mL; with K. pneumoniae BAA-1898 [9], 64 µg/mL; in the assay with K. pneumoniae 6299 [10], 2 µg/mL.
